From patent US4540700A, “Treatment of diabetic complications with certain spiro-imidazolidine-diones” (Alcon Laboratories, Inc., priority 1984, dated 1985)
Several values for one entry are separate records, joined by “and”; a condition that tells them apart may be missing. Equal entries are not always repeated.

Test system: cataract formation in galactocemic rats
Assay: in vivo dose response by intubation (per oral) in galactocemic rats, cataract (vacuole) formation
Parameters: species or system Charles River CD (Sprague-Dawley derived) male rats
Experimental: B. In vivo dose response studies were conducted to test the in vivo activity of the following compounds by intubation (per oral) in galactocemic rats on a 30% galactose diet previously described:
Stock suspensions of the test compounds and all dilutions of the compound were formulated with 0.03% by weight Tween 80.
Healthy, Charles River CD (outbred albino, Sprague-Dawley derived) male rats, aged 20-30 days, without observable ocular defects and ranging in weight from 35-45 grams, were acclimated to experimental conditions (in quarantine) for two days prior to beginning the study.
Rats were individually assigned to one of twenty-three groups according to a random number schedule. Two rats, belonging to the same drug-diet treatment group, were housed per cage. Treatment and control groups consisted of six (6) rats each with no replacement in the event of death, and were designated as follows:
Lenses of all eyes were examined with a hand-held ophthalmoscope in the early stages of cataract development and a penlight for the stages, snowflake-like, snowflake, and nuclear cataract. Lens grading occurred every day for the first ten study days, and then every other day until study Day 14.
The relative potency determination was made at 7 drug levels over half log dose intervals. The response (percent cataracts formed and/or the time to cataract formation) was plotted against mg/kg and/or moles/kg.
The study was directed to the suppression and/or elimination of the initial stages of cataract development characterized by vacuoles or snowflake-likeopacities only. It was assumed therefore that suppression and/or elimination of vacuoles or lens opacification by the test drugs affects the transport, absorption and/or metabolism of galactose in such a manner as to prevent subsequent osmotic disturbances normally leading to tissue degeneration and advanced cataract. Advanced cataract defined as stages 2-4 of the Sipple classification was assumed to be of secondary importance to the etiology of cataract inhibition.
In the event where cataract stage other than vacuole formed, such as snowflake-like opacities, this cataract was counted similarly as vacuole in percent cataract formation.
This study yielded this expected effect in the control groups.
All animals were fed Purina Laboratory Chow and water, ad libitum, for the two day acclimation period. All drugs were dosed orally by intubation using an animal feeding needle (Popper and Sons), 18 or 20 gauge, attached to a 1 or 3 ml syringe. Once the dosing time schedule was established, the schedule was followed throughout the study to compensate for any diurnal variation.
The animals were kept on a twelve hour day/night cycle. The temperature and humidity were determined each day at the scheduled dosing time of 1:00 p.m.
The animals were weighed every other day and adjustments to dosage amounts to compensate for weight gain were made each day prior to the dose time. All food was routinely withheld from all animal groups for four hours (9:00 a.m.) prior to the drug dose and restored two hours (3:00 p.m.) post-dose. Otherwise sufficient amounts of chow or diet mixture were maintained in the food hopper to allow the animals to eat ad libitum. There were two days of drug dosage with the animals remaining on Purina Laboratory Chow (Days 1 and 2). The 30% galactose diet mixture was introduced to the animals two hours post-dose on Day 3 which constituted Day 1 of the study.
All eyes were examined with a hand-held ophthalmoscope and/or penlight at the times designated in the Experimental Design section.
It has been found in previous studies that dilation of the eye with a mydriactic (i.e. Mydriacyl) is not necessary for accurate grading, due to the semi-transparent nature of the rat iris. In the early stages (i.e., grades -, ±, and +) the lens was observed by reflecting the ophthalmoscope beam off the retina back through the lens and iris. Using this technique, vacuoles appear as dark, almost opaque patches. […]

For `O=C1NC(=O)C2(CCOc3ccc(F)cc32)N1` (racemic) [Sarges Racemic, dl-spiro-(6-fluorochroman-4,4'-imidazolidine)-2',5'-dione, reference compound], the “Percent of Rat Eyes With at Least Vacuoles Formed” value (“Percent” for short) (0.126 mg/kg p.o., Day 0) was 0%, the “Percent” value (0.126 mg/kg p.o., Day 1) was 0% and the “Percent” value (0.126 mg/kg p.o., Day 2) was 0%. The “Percent” value (0.126 mg/kg p.o., Day 3) was 0%, the “Percent” value (0.126 mg/kg p.o., Day 4) was 0% and the “Percent” value (0.126 mg/kg p.o., Day 5) was 0%. The “Percent” value (0.126 mg/kg p.o., Day 6) was 33%, the “Percent” value (0.126 mg/kg p.o., Day 7) was 33% and the “Percent” value (0.126 mg/kg p.o., Day 8) was 50%. For the same compound, the “Percent” value (0.126 mg/kg p.o., Day 9) was 58%, the “Percent” value (0.126 mg/kg p.o., Day 10) was 83% and the “Percent” value (0.126 mg/kg p.o., Day 12) was 83%. The “Percent” value (0.126 mg/kg p.o., Day 14) was 100%, the “Percent” value (0.4 mg/kg p.o., Day 0) was 0% and the “Percent” value (0.4 mg/kg p.o., Day 1) was 0%. For the same compound, the “Percent” value (0.4 mg/kg p.o., Day 2) was 0%, the “Percent” value (0.4 mg/kg p.o., Day 3) was 0% and the “Percent” value (0.4 mg/kg p.o., Day 4) was 0%. The “Percent” value (0.4 mg/kg p.o., Day 5) was 0%, the “Percent” value (0.4 mg/kg p.o., Day 6) was 33% and the “Percent” value (0.4 mg/kg p.o., Day 7) was 33%. The “Percent” value (0.4 mg/kg p.o., Day 8) was 50%, the “Percent” value (0.4 mg/kg p.o., Day 9) was 58% and the “Percent” value (0.4 mg/kg p.o., Day 10) was 83%. For the same compound, the “Percent” value (0.4 mg/kg p.o., Day 12) was 83%, the “Percent” value (0.4 mg/kg p.o., Day 14) was 100% and the “Percent” value (1.26 mg/kg p.o., Day 0) was 0%. For the same compound, the “Percent” value (1.26 mg/kg p.o., Day 1) was 0%, the “Percent” value (1.26 mg/kg p.o., Day 2) was 0% and the “Percent” value (1.26 mg/kg p.o., Day 3) was 0%. For the same compound, the “Percent” value (1.26 mg/kg p.o., Day 4) was 0%, the “Percent” value (1.26 mg/kg p.o., Day 5) was 0% and the “Percent” value (1.26 mg/kg p.o., Day 6) was 0%. For the same compound, the “Percent” value (1.26 mg/kg p.o., Day 7) was 0%, the “Percent” value (1.26 mg/kg p.o., Day 8) was 8% and the “Percent” value (1.26 mg/kg p.o., Day 9) was 17%. The “Percent” value (1.26 mg/kg p.o., Day 10) was 83%, the “Percent” value (1.26 mg/kg p.o., Day 12) was 100% and the “Percent” value (1.26 mg/kg p.o., Day 14) was 100%. The “Percent” value (4.0 mg/kg p.o., Day 0) was 0%, the “Percent” value (4.0 mg/kg p.o., Day 1) was 0% and the “Percent” value (4.0 mg/kg p.o., Day 2) was 0%. For the same compound, the “Percent” value (4.0 mg/kg p.o., Day 3) was 0%, the “Percent” value (4.0 mg/kg p.o., Day 4) was 0% and the “Percent” value (4.0 mg/kg p.o., Day 5) was 0%. The “Percent” value (4.0 mg/kg p.o., Day 6) was 0%, the “Percent” value (4.0 mg/kg p.o., Day 7) was 0% and the “Percent” value (4.0 mg/kg p.o., Day 8) was 0%. For the same compound, the “Percent” value (4.0 mg/kg p.o., Day 9) was 0%, the “Percent” value (4.0 mg/kg p.o., Day 10) was 0% and the “Percent” value (4.0 mg/kg p.o., Day 12) was 17% and 16.7%. For the same compound, the “Percent” value (4.0 mg/kg p.o., Day 14) was 50%, the “Percent” value (12.6 mg/kg p.o., Day 0) was 0% and the “Percent” value (12.6 mg/kg p.o., Day 1) was 0%. For the same compound, the “Percent” value (12.6 mg/kg p.o., Day 2) was 0%, the “Percent” value (12.6 mg/kg p.o., Day 3) was 0% and the “Percent” value (12.6 mg/kg p.o., Day 4) was 0%. For the same compound, the “Percent” value (12.6 mg/kg p.o., Day 5) was 0%, the “Percent” value (12.6 mg/kg p.o., Day 6) was 0% and the “Percent” value (12.6 mg/kg p.o., Day 7) was 0%. The “Percent” value (12.6 mg/kg p.o., Day 8) was 0%, the “Percent” value (12.6 mg/kg p.o., Day 9) was 0% and the “Percent” value (12.6 mg/kg p.o., Day 10) was 0%. For the same compound, the “Percent” value (12.6 mg/kg p.o., Day 12) was 0%, the “Percent” value (12.6 mg/kg p.o., Day 14) was 8% and 0.3% and the “Percent” value (40 mg/kg p.o., Day 0) was 0%. For the same compound, the “Percent” value (40 mg/kg p.o., Day 1) was 0%, the “Percent” value (40 mg/kg p.o., Day 2) was 0% and the “Percent” value (40 mg/kg p.o., Day 3) was 0%. For the same compound, the “Percent” value (40 mg/kg p.o., Day 4) was 0%, the “Percent” value (40 mg/kg p.o., Day 5) was 0% and the “Percent” value (40 mg/kg p.o., Day 6) was 0%. For the same compound, the “Percent” value (40 mg/kg p.o., Day 7) was 0%, the “Percent” value (40 mg/kg p.o., Day 8) was 0% and the “Percent” value (40 mg/kg p.o., Day 9) was 0%. The “Percent” value (40 mg/kg p.o., Day 10) was 0%, the “Percent” value (40 mg/kg p.o., Day 12) was 0% and the “Percent” value (40 mg/kg p.o., Day 14) was 0%.
